Results published in PubChem BioAssay (NCI).
Where “and” joins values, the source holds several entries; their conditions need not be identical. Equal values may be shown once.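 Where inhibition never reached the appropriate level, the endpoint shown equals the highest concentration tested. Otherwise, values were interpolated linearly from a five-concentration, 48-hour dose response in 96-well plates. The concentration for 50% growth inhibition is given as GI50. TGI: total growth inhibition.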

Tests used:
Experiment in all cases: NCI-60 cell line screen, 48 h
786-0 renal = test system: 786-0 renal
A549 NSCLC = test system: A549 NSCLC
BT-549 breast = test system: BT-549 breast
HOP-62 NSCLC = test system: HOP-62 NSCLC
IGROV1 ovarian = test system: IGROV1 ovarian
MDA-MB-231 breast = test system: MDA-MB-231 breast
NCI/ADR-RES ovarian = test system: NCI/ADR-RES ovarian
OVCAR-4 ovarian = test system: OVCAR-4 ovarian
SNB-19 CNS = test system: SNB-19 CNS
SW-620 colon = test system: SW-620 colon

Compound	GI50 (786-0 renal)	TGI (786-0 renal)	GI50 (A549 NSCLC)	TGI (A549 NSCLC)	GI50 (BT-549 breast)	TGI (BT-549 breast)	GI50 (HOP-62 NSCLC)	TGI (HOP-62 NSCLC)	GI50 (IGROV1 ovarian)	TGI (IGROV1 ovarian) [µM]	GI50 (MDA-MB-231 breast)	TGI (MDA-MB-231 breast)	GI50 (NCI/ADR-RES ovarian) [µM]	TGI (NCI/ADR-RES ovarian) [µM]	GI50 (OVCAR-4 ovarian)	TGI (OVCAR-4 ovarian) [µM]	GI50 (SNB-19 CNS)	TGI (SNB-19 CNS) [µM]	GI50 (SW-620 colon)	TGI (SW-620 colon) [µM]
COc1cc(/C=N/NC(=O)c2ccccc2Nc2cccc(C(F)(F)F)c2)cc(OC)c1OC	3.22 µM	11.6 µM	3.6 µM	10.8 µM	2.3 µM	9.23 µM	3.23 µM	11 µM	4.19 µM	14.2	6.33 µM	20.5 µM	3.87	14.4	3.37 µM	15.2	3.85 µM	18.5	1.71 µM	6.36
Nc1ccn(C2OC(C(OC3OC(CO)C(O)C(N)C3O)C(O)C(O)C(O)C(O)CO)C(N)C(O)C2O)c(=O)n1 (centres undefined)	–	> 100 µM	–	> 100 µM	–	99 µM	–	> 100 µM	–	> 100	–	41.1 µM	–	> 100	–	14.8	–	> 100	–	> 100
COc1cc(Cn2c(-c3ccccc3)cc3c2-c2oncc2CC3)cc(OC)c1	0.601 µM	> 100 µM	0.404 µM	> 100 µM	0.9 µM	> 100 µM	0.521 µM	> 100 µM	0.399 µM	> 100	0.694 µM	> 24.2 µM	0.208	–	0.664 µM	> 100	0.562 µM	> 100	0.36 µM	> 100
Cn1cc(NC(=O)Nc2cc(C(=O)Nc3cc(C(=O)Nc4cc(S(=O)(=O)O)c5cc(S(=O)(=O)O)cc(S(=O)(=O)O)c5c4)n(C)c3)n(C)c2)cc1C(=O)Nc1cc(C(=O)Nc2cc(S(=O)(=O)O)c3cc(S(=O)(=O)O)cc(S(=O)(=O)O)c3c2)n(C)c1	–	> 100 µM	–	> 100 µM	–	> 100 µM	–	> 100 µM	–	> 100	–	> 100 µM	–	> 100	–	> 100	–	> 100	–	> 100
CNC(c1ccncc1)C(NC)c1ccncc1 (centres undefined)	–	> 100 µM	–	> 100 µM	–	> 100 µM	–	> 100 µM	–	> 100	–	> 100 µM	–	> 100	–	> 100	–	> 100	–	> 100
CCCCCCCCCCSC(=N)N	4.92 µM	19.5 µM	5.59 µM	18.6 µM	11.3 µM	24.6 µM	3.36 µM	10.3 µM	2.85 µM	13.3	2.51 µM	9.15 µM	4.8	22.3	3.58 µM	17.6	5.17 µM	19.2	1.7 µM	3.52
Cn1cc(-c2nc(N[C@@H]3CCCC[C@@H]3N)c(F)c3c2C(=O)NC3)cn1	3.99 µM and 6.36 µM	22.1 µM and > 52.4 µM	6.47 µM and 9.22 µM	75.5 µM and 81.1 µM	6.47 µM and 10 µM	21.3 µM and 29.7 µM	3.37 µM and 3.32 µM	29.7 µM and 30.5 µM	5 µM and 5.65 µM	> 68.9	5.04 µM and 6.15 µM	26.2 µM and 31.9 µM	> 100	> 100	15.4 µM and 19.6 µM	> 100	27.3 µM and 29 µM	> 100	4.26 µM and 5 µM	> 100
O=C(/C=C/c1ccco1)c1ccc(Nc2nc(Nc3ccc(F)cc3)nc(Nc3ccc(F)cc3)n2)cc1	48.8 µM	> 100 µM	19.8 µM	> 100 µM	4.9 µM	26.8 µM	57.4 µM	> 100 µM	10.7 µM	29.6	23.7 µM	> 100 µM	15.1	52.1	8.99 µM	36.2	20.5 µM	70.8	19 µM	> 100
Cc1ccc(S(=O)(=O)NC(CO)C(=O)O)cc1 (centres undefined)	–	> 100 µM	–	> 100 µM	–	> 100 µM	–	> 100 µM	–	> 100	–	> 100 µM	–	> 100	–	> 100	–	> 100	–	> 100
CCOC(=O)c1c(C)n(Cc2ccccc2)c2c1cc1oc(=O)c(=O)n3cnc2c13	13.7 µM	> 50 µM	13.6 µM	45.7 µM	16.2 µM	34.2 µM	29.4 µM	> 50 µM	28.1 µM	> 50	13 µM	> 50 µM	18.5	> 50	19.8 µM	> 50	42.4 µM	> 50	14.1 µM	34.7
O=C(C=C=Nc1ccccc1)C(=O)N=C=Cc1ccccc1	1.75 µM	3.9 µM	6.74 µM	22.9 µM	2.59 µM	9.2 µM	21.4 µM	52.6 µM	2.96 µM	12.3	3.15 µM	10.4 µM	2.95	14.7	2.15 µM	6.41	31.6 µM	> 60.7	1.72 µM	3.61
O=C(/C=C/c1cccc2ccccc12)Nc1ncc(Cc2ccccc2)s1	0.704 µM	3.27 µM	1.32 µM	> 66.3 µM	2.44 µM	> 100 µM	0.885 µM	4.56 µM	1.27 µM	> 87.3	2 µM	> 40.3 µM	0.713	> 69.3	2.12 µM	5.16	0.971 µM	> 100	0.737 µM	> 100
H-QIYKKYRTWYRKAWKVLGKV-NH2	3.04 µM	16.8 µM	12.7 µM	47.7 µM	5.36 µM	27.2 µM	5.15 µM	> 100 µM	3.06 µM	14.1	4.35 µM	17.9 µM	4.81	> 100	9.03 µM	50.5	17.5 µM	68.6	13 µM	43.6
Cc1cc(Nc2nc(-c3ccncc3)nc3ccccc23)n[nH]1	2.98 µM	> 100 µM	3.59 µM	> 100 µM	9.09 µM	> 100 µM	11 µM	> 100 µM	1.92 µM	> 100	14.7 µM	> 100 µM	11.1	> 100	15.5 µM	> 100	83.1 µM	> 100	3.71 µM	> 100
